# Assay results as given in patent US20230210903A1, “HYPOXIA-RESISTANT NATURAL KILLER CELLS” (ONK THERAPEUTICS LIMITED, priority 2020, published 2023).
# T1: decoy receptor DcR1 (Homo sapiens, UniProt O14798)
# T1 sequence (O14798 26-236): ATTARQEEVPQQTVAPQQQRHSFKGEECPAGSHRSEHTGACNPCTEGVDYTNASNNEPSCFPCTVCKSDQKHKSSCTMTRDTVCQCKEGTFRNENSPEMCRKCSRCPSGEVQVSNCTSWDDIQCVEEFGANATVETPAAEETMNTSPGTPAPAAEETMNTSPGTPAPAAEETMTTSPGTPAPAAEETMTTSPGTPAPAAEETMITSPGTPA
# T2: DcR1 (Homo sapiens, UniProt O14798)
# T2 sequence (O14798 26-236): T1 sequence (O14798 26-236)
# T3: DcR2 (Homo sapiens, UniProt Q9UBN6)
# T3 sequence (Q9UBN6 56-386): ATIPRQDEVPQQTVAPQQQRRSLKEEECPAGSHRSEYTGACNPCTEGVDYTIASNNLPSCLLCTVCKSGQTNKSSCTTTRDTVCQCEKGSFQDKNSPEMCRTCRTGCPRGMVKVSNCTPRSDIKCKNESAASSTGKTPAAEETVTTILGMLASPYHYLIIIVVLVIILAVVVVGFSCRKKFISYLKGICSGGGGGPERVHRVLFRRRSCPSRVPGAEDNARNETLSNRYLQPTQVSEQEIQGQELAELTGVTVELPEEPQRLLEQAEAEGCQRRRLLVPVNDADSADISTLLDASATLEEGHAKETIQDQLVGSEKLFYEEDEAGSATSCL
# B1: TRAIL variant: encoded by the wildtype TRAIL gene containing the D269H/E195R mutation, described in WO 2009/077857 (protein)
# chain: MAMMEVQGGPSLGQTCVLIVIFTVLLQSLCVAVTYVYFTNELKQMQDKYSKSGIACFLKEDDSYWDPNDEESMNSPCWQVKWQLRQLVRKMILRTSEETISTVQEKQQNISPLVRERGPQRVAAHITGTRGRSNTLSSPNSKNEKALGRKINSWESSRSGHSFLSNLHLRNGELVIHEKGFYYIYSQTYFRFQERIKENTKNDKQMVQYIYKYTSYPDPILLMKSARNSCWSKDAEYGLYSIYQGGIFELKENDRIFVSVTNEHLIDMHHEASFFGAFLVG
# Columns and labels:
# [1] = tested on: phosphorylation of ERK and STAT3; assay: Western blotting of ERK and STAT3 phosphorylation in hypoxic KHYG-1 cells; format: cell-based; details: hypoxic KHYG-1 cells pre-treated with 5 μM for 2 h
# Description: Hypoxic KYHG-1 cells were pre-treated with 5 μM TPI-1 for 2 h, and then the cells were collected for western blotting analysis.
# For western blotting, treated and untreated KHYG-1 and NK92 cells were lysed in buffer containing 50 mM Tris, 150 mM NaCl, 1% Triton X-100, 1% sodium deoxycholate, 0.1% SDS and protease inhibitors on ice for 30 min. Lysates were centrifuged at 12,000 rpm for 15 min, and supernatants were collected. Protein concentration was determined by the BCA protein assay kit (HEART Biotech, #WB003). Equal amounts of protein were loaded and separated on sodium dodecyl sulfate-polyacrylamide gel electrophoresis gel, and transferred onto a PVDF membrane (Millipore, #IPVH00010). After blocking for 1 h with 5% non-fat milk in PBS with 0.1% Tween-20 at room temperature, the membrane was incubated with primary antibody at 4° C. overnight. Immunoblots were visualized using HRP-conjugated secondary antibodies and the ECL Western Blot Detection kit (Phygene Life Sciences, #PH0353).
# KHYG-1 cells = assay: Flow cytometry of activating receptors on NK cell surface, KHYG-1; format: cell-based; details: 10 μM inhibitor for 24 h
# Description: (§1) Hypoxia diminishes the phosphorylation level of ERK and STAT3.
# (§2) The expression of NK cell cytotoxicity effector molecules and activating receptors was analyzed by flow cytometry. For membrane staining, 5×10^5 cells were collected and washed with staining buffer (PBS containing 0.1% NaN3 and 0.1% BSA) three times. The cells were then incubated for 30 min on ice, according to the instructions provided with the respective antibodies. After washing 3 times with cell stain buffer, the cells were resuspended in 300 μL staining buffer in the presence of Sytox Green or 7-AAD, which were used to gate out dead cells. Acquisition of 10,000 cells per reaction was performed using a CytoFLEX Cytometer (Beckman Coulter Life Sciences). Data were analyzed with Flowjo v7.6.2 (Tree Star). For intracellular staining, 5×10^5 cells were collected and fixed with 1 mL 1% paraformaldehyde in PBS for 15 minutes at room temperature. After washing 3 times with cell stain buffer, the fixed cells were then resuspended in 2 mL permeabilization buffer (0.1% saponin in cell staining buffer) and incubated for 30 min at room temperature. The cells were collected again by centrifugation, stained with the antibody at an optimal working concentration in permeabilization buffer for 15 min on ice. […]
# NK-92 cells = assay: Flow cytometry of activating receptors on NK cell surface, NK-92; format: cell-based; details: 10 μM inhibitor for 24 h
# Description: as §1, §2
# K562 cells = details: KHYG-1 pretreated with 10 μM for 6 h, then K562 at different E:T ratios for 4 h
# Description: Statistical analysis showing the effects of ERK and STAT3 inhibition on NK cells cytotoxicity against K562 cells (n=3, * P<0.05, ** P<0.01). KHYG-1 cells were pretreated with 10 μM U0126 and 10 μM CPT for 6 h and then incubated with K562 at different E:T ratios for 4 h.
# (e) Flow cytometric analysis of the effects of TPI-1 on the NK cell cytotoxicity. Left panel: representative flow cytometry results of TPI-1 on the cytotoxicity of KHYG-1 cells. KHYG-1 cells were pretreated with 5 μM TPI-1 for 2 h, and then incubated with K562 cells at different E:T ratios for 4 h. Right panel: statistical analysis of the effects of TPI-1 on KHYG-1 cell cytotoxicity against K562 cells (n=3, * P<0.05).
# (b) Statistical analysis of the effects of knocking down SHP-1 on NK cells cytotoxicity against K562 cells (n=3, * P<0.05). […]
# Prior to the assay, NK cells and tumour cells were individually pre-incubated for 24 h at 5% CO2 with 20% or 1% 02 first. […] After the 4 h incubation, samples were harvested and washed followed by a combinational staining with CD2-APC, Annexin V-FITC as well as Sytox Green, in which CD2 was used to distinguish effector from target cells, and target cell death was detected with Annexin V-FITC and Sytox Green. A minimum of 10,000 target events were collected per sample, and the results were analyzed using Flowjo v7.6.2.
# DR4 = DR4 (Homo sapiens, UniProt O00220); details: surface plasmon resonance; WO 2009/077857; cited from earlier work
# decoy receptor DcR1 = target: T1, decoy receptor DcR1; details: surface plasmon resonance; WO 2009/077857; cited from earlier work
# DR5 = DR5 (Homo sapiens, UniProt O14763); details: compared with wildtype TRAIL; cited from earlier work
# DcR1 = target: T2, DcR1; details: compared with wildtype TRAIL; cited from earlier work
# DcR2 = target: T3, DcR2; details: compared with wildtype TRAIL; cited from earlier work
molecule,measurement,setting,value
O=C1C=CC(=O)C(c2cc(Cl)ccc2Cl)=C1 [TPI-1],phosphorylation of ERK and STAT3,[1],reverse the decrease
N#CC(=C(/N)Sc1ccccc1N)/C(C#N)=C(\N)Sc1ccccc1N [U0126],"expression of activating receptors NKp30, NKp46 and NKG2D",KHYG-1 cells,significantly reduced
same,expression of activating receptors NKp46 and NKG2D,NK-92 cells,significantly reduced
same,NK cell cytotoxicity against cancer cells,K562 cells,significantly impaired
C[C@H]1COC2=C1C(=O)C(=O)c1c2ccc2c1CCCC2(C)C [cryptotanshinone],NK cell cytotoxicity against cancer cells,K562 cells,significantly impaired
Wildtype TRAIL: wildtype TRAIL ligand,Kd,DR4,> 2 nM
same,Kd,decoy receptor DcR1,> 20 nM
B1,affinity for DR5,DR5,significantly increases
same,affinity for decoy receptor DcR1,DcR1,reducing
same,affinity for decoy receptor DcR2,DcR2,reducing
